# According to patent US20250290117A1, “MOLECULAR PHENOTYPIC ANTIMICROBIAL SUSCEPTIBILITY TESTING” (priority 2024, published 2025):
# Assays:
# E. coli = experiment: Molecular phenotypic antimicrobial susceptibility test, specimen with two detected pathogens incubated together without isolation; type: cell-based, Escherichia coli; details: E. coli in specimen with two detected pathogens (E. coli and M. morganii) incubated together
# Method in brief: (§1)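 Specimen in boric acid; pathogens identified by PCR while a parallel aliquot grew 4-6 h in liquid medium. With >10,000 cells/mL detected, culture diluted to 0.5 McFarland and exposed to antimicrobials in broth (e.g. Mueller Hinton) at breakpoint concentrations; both pathogens incubated together unisolated, growth read by molecular methods against medium-only wells.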
# M. morganii = experiment: as above; type: cell-based, Morganella morganii; details: M. morganii in specimen with two detected pathogens (E. coli and M. morganii) incubated together
# Method in brief: as §1
# S. aureus = experiment: Molecular phenotypic antimicrobial susceptibility test with direct PCR (no extraction DNA purification step); type: cell-based, Staphylococcus aureus
# Procedure: Detection of Molecular Phenotypic Antimicrobial Susceptibility. Disclosed herein are the methods for the detection of phenotypic antimicrobial susceptibility via molecular methods. The present invention describes how a specimen 100 with a known microbial load is incubated and then exposed to a panel of antimicrobial agents to determine sensitivity (prevention of growth) or resistance (allowance of growth) to the specific antimicrobial agents tested utilizing molecular methods.
# Sample Collection. Specimens 100 are collected from patients using sterile collection processes that are employed in routine clinical care. Specimens are transported to the testing facility in boric acid preservative.
# Preparation of the Specimens for Testing. […] The process for pathogen isolation includes steps of harvesting the pathogen (e.g., via centrifugation), isolating pathogen DNA via a DNA isolation and/or purification kit, and performing PCR on the pathogen DNA via PCR components (e.g., primers, enzymes, buffers) as would be known to the skilled artisan. […] This aliquot is used for antimicrobial susceptibility testing if indicated based on the pathogen detection results. […] Specimens 100 with lower pathogen loads could also be utilized in the antibiotic susceptibility phase of testing with or without a longer incubation period.
# Preparation of Antimicrobial Susceptibility Testing Plates. Antimicrobial solutions are prepared at known concentrations. The specific antimicrobials and their concentrations are selected based on the pathogen of interest and the described antimicrobial resistance breakpoints for that specimen pathogen and antimicrobial combination. These antimicrobials have been selected based on those commonly utilized by healthcare providers in routine clinical care for the specific type of suspected infection. The number and types of antimicrobials utilized can be customized based on the infection source, pathogen detected, patient-specific factors such as allergies or other health conditions (e.g., chronic kidney disease or concurrent medication use), or healthcare provider preferences such as antimicrobial availability or cost.
# The antimicrobial solutions are prepared in liquid culture media (such as Muller Hinton Broth) to achieve the desired antimicrobial concentration and are then stored at −80° C. until use. For a given specimen, each antimicrobial is tested at a single or multiple antimicrobial concentration(s) which is its established breakpoints for sensitivity. The antimicrobial solutions are prepared and plated out for each specific pathogen. […] This allows for evaluation of pathogen load when no antimicrobial is present.
# Specimen Exposure to Antimicrobial Agents. The 1 mL aliquot of the specimen 100 previously mixed with culture media and incubated is obtained. Using optical density measurements as a guide, the specimen 100 is diluted to 0.5 McFarland.
# Antimicrobial exposure plates are typically placed into an incubator for 12-16 hours.
# Nucleic Acid Amplification of Antimicrobial Agent Exposed Pathogens. The antimicrobial exposure plate is removed after the period of incubation. The specimen then undergoes a purification or lysis step. For example, the specimen may undergo a purification step (e.g., magnetic bead-based or other separation protocol to isolate genetic material). In another example, the specimen may undergo a cell lysis step. For example, buffer (e.g., lysis buffer) may be added and incubated in the thermal cycler for preparation for direct PCR. Next, the specimen may undergo a polymerase chain reaction (PCR) testing protocol, whereby a semi-quantitative PCR method is utilized. This may be completed either with or without a specific extraction protocol step. The pathogens can be individually targeted and detected, or a universal genetic sequence can be utilized to detect the antimicrobial susceptibility of the specimen as a whole.
# [1] = test system: pathogens of clinical samples; experiment: Molecular phenotypic antimicrobial susceptibility test of clinical samples, extraction DNA purification step prior to PCR (Table 6); type: cell-based
# Method in brief: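 Semi-quantitative PCR measures growth after exposure, so sensitivity means prevented growth and resistance means allowed growth. Exposure lasts 12-16 hours at single or multiple breakpoint concentrations in Mueller Hinton Broth, with the inoculum at 0.5 McFarland.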
smiles,measurement,setting,value
C[C@H]1COc2c(N3CCN(C)CC3)c(F)cc3c(=O)c(C(=O)O)cn1c23 [Levofloxacin],Ct of Sensitive Breakpoint,E. coli; Ct of controls (average) 15.93,32.72
same,Molecular Antimicrobial Susceptibility Result,E. coli; at sensitive breakpoint,Sensitive (Antimicrobial wells with pathogen load detected below the control wells (typically >2 cycle thresholds later) may be reported as Sensitive)
same,Ct of Sensitive Breakpoint,M. morganii; Ct of controls (average) 19.99,29.62
same,Molecular Antimicrobial Susceptibility Result,M. morganii; at sensitive breakpoint,Sensitive (Antimicrobial wells with pathogen load detected below the control wells (typically >2 cycle thresholds later) may be reported as Sensitive)
same,Ct at Sensitive Breakpoint,"S. aureus; S. aureus isolate NR-46412 HIP13170, Ct at control (average) 18.824",18.264
same,Molecular Antimicrobial Susceptibility Result,"S. aureus; S. aureus isolate NR-46412 HIP13170, at sensitive breakpoint",Resistant
same,Molecular Antibiotic Susceptibility Result,"[1]; E. coli, clinical sample of r10-r24",Resistant
same,Ct,"[1]; E. coli, clinical sample of r10-r24, Ct Control Avg 18.112",17.903
same,Molecular Antibiotic Susceptibility Result,"[1]; E. coli, clinical sample of r158-r172",Sensitive (Antimicrobial wells with pathogen load detected below the control wells (typically >2 cycle thresholds later) may be reported as Sensitive)
same,Ct,"[1]; E. coli, clinical sample of r158-r172, Ct Control Avg 20.146",34.012
same,Molecular Antibiotic Susceptibility Result,"[1]; E. faecalis, clinical sample of r93-r99",Sensitive (Antimicrobial wells with pathogen load detected below the control wells (typically >2 cycle thresholds later) may be reported as Sensitive)
same,Ct,"[1]; E. faecalis, clinical sample of r93-r99, Ct Control Avg 22.987",37.857
same,Ct,"[1]; E. faecalis, clinical sample of r100-r106, Ct Control Avg 23.073",38.337
same,Ct,"[1]; E. faecalis, clinical sample of r107-r113, Ct Control Avg 22.144",29.347
same,Molecular Antibiotic Susceptibility Result,"[1]; E. faecalis, clinical sample of r114-r120",Sensitive (Antimicrobial wells with pathogen load detected below the control wells (typically >2 cycle thresholds later) may be reported as Sensitive)
same,Ct,"[1]; E. faecalis, clinical sample of r114-r120, Ct Control Avg 20.822",32.971
same,Molecular Antibiotic Susceptibility Result,"[1]; E. faecalis, clinical sample of r151-r157",Sensitive (Antimicrobial wells with pathogen load detected below the control wells (typically >2 cycle thresholds later) may be reported as Sensitive)
same,Ct,"[1]; E. faecalis, clinical sample of r151-r157, Ct Control Avg 20.56",37.926
same,Molecular Antibiotic Susceptibility Result,"[1]; K. aerogenes, clinical sample of r136-r150",Sensitive (Antimicrobial wells with pathogen load detected below the control wells (typically >2 cycle thresholds later) may be reported as Sensitive)
same,Ct,"[1]; K. aerogenes, clinical sample of r136-r150, Ct Control Avg 19.994",38.019
same,Molecular Antibiotic Susceptibility Result,"[1]; K. pneumoniae, clinical sample of r121-r135",Sensitive (Antimicrobial wells with pathogen load detected below the control wells (typically >2 cycle thresholds later) may be reported as Sensitive)
same,Ct,"[1]; K. pneumoniae, clinical sample of r121-r135, Ct Control Avg 24.272",34.466
same,Molecular Antibiotic Susceptibility Result,"[1]; M. morganii, clinical sample of r55-r69",Sensitive (Antimicrobial wells with pathogen load detected below the control wells (typically >2 cycle thresholds later) may be reported as Sensitive)
same,Molecular Antibiotic Susceptibility Result,"[1]; M. morganii, clinical sample of r70-r84",Sensitive (Antimicrobial wells with pathogen load detected below the control wells (typically >2 cycle thresholds later) may be reported as Sensitive)
same,Ct,"[1]; M. morganii, clinical sample of r70-r84, Ct Control Avg 27.053",37.67
same,Molecular Antibiotic Susceptibility Result,"[1]; P. mirabilis, clinical sample of r25-r39",Sensitive (Antimicrobial wells with pathogen load detected below the control wells (typically >2 cycle thresholds later) may be reported as Sensitive)
same,Ct,"[1]; P. mirabilis, clinical sample of r25-r39, Ct Control Avg 26.064",33.029
same,Molecular Antibiotic Susceptibility Result,"[1]; P. mirabilis, clinical sample of r40-r54",Sensitive (Antimicrobial wells with pathogen load detected below the control wells (typically >2 cycle thresholds later) may be reported as Sensitive)
same,Ct,"[1]; P. mirabilis, clinical sample of r40-r54, Ct Control Avg 26.987",33.384
same,Molecular Antibiotic Susceptibility Result,"[1]; S. aureus, clinical sample of r85-r92",Resistant
same,Ct,"[1]; S. aureus, clinical sample of r85-r92, Ct Control Avg 24.32",19.106
